Source: patent publication US20250120927A1, “CNDP2 MODULATORS AND METHODS FOR THEIR USE” (Metabolon Inc., priority 2023, published 2025)
Several values for one entry are separate records, joined by “and”; a condition that tells them apart may be missing. Equal values may be shown once. Where a name gives a salt, the structure may show the parent alone.

Target: CNDP2 (Homo sapiens (Human), UniProt Q96KP4)
Experiment: CNDP2 enzyme inhibition assay (Met-His hydrolysis, free histidine by o-phthaldialdehyde fluorescence), dose-response
Type: biochemical
Details: 50 nM purified CNDP2 (Sino Biological), 1 mM Met-His substrate, 30 minutes at 37° C.; TABLE 1
Protocol: To identify optimal conditions for identifying novel inhibitors of CNDP2, enzyme assays were performed with varied sources of purified enzyme, concentrations of enzyme, peptide substrates, concentrations of peptide substrates and metal cofactors. […] The reaction mixture was incubated for 30 minutes at 37° C. before it was quenched with an equal volume of 1% TCA. Free histidine was quantified after derivatization with a fluorophore (o-phthaldialdehyde from Sigma-Aldrich, excitation 340 nm, emission 460 nm). The reaction was conducted in an automation-friendly format to meet future screening throughput demands. A histidine titration standard curve was also included to enable conversion of fluorescence signal to molar concentration of histidine released by the hydrolysis reaction and to ensure the linearity of the fluorescence signal vs. free histidine.
Compounds of Formula (I) disclosed herein were screened for potency in inhibiting CNDP2 enzyme activity in a dose-response experiment. Bestatin was included with each batch of test molecules as a benchmark for assay quality control.

Chain of CNDP2 (Q96KP4 whole entry): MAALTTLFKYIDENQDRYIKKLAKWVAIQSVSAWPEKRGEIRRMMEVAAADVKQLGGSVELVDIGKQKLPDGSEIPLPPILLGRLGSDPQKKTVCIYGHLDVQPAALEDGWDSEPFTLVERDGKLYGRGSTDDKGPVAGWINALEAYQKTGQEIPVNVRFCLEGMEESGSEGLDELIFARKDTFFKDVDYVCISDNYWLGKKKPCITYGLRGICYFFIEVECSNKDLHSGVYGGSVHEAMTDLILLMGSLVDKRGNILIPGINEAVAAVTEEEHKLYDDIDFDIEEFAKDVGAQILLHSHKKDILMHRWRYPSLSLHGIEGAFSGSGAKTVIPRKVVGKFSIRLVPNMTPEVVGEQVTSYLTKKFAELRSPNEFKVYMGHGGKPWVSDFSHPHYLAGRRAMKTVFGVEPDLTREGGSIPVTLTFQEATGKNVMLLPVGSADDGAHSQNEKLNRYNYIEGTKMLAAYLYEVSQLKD

Q: `N[C@H](Cc1ccccc1)[C@H](O)C(=O)N[C@@H](Cc1ccc(F)cc1)C(=O)O` [Compound 1, (S)-2-((2S,3R)-3-amino-2-hydroxy-4-phenylbutanamido)-3-(4-fluorophenyl)propanoic acid] was tested. Which IC50 did it give?
A: ≥ 1000 nM

Q: How did the IC50 turn out when `N[C@H](Cc1ccccc1)[C@H](O)C(=O)N[C@H](C(=O)O)C1CCOCC1` [Compound 21, 2-[[(2S,3R)-3-amino-2-hydroxy-4-phenyl-butanoyl]amino]-2-tetrahydropyran-4-yl-acetic acid] was run?
A: ≥ 1000 nM

Q: For `CS(=O)(=O)NC(=O)C(NC(=O)[C@@H](O)[C@H](N)Cc1ccccc1)c1cccc(C(F)(F)F)c1` (stereo partly drawn) [Compound 55], which IC50 is on record?
A: ≥ 1000 nM

Q: For `N[C@H](Cc1ccccc1)[C@H](O)C(=O)NC(C(=O)O)C1CCCCCC1` (stereo partly drawn) [Compound 30], which IC50 is on record?
A: 100 to 1000 nM

Q: For `CCC(c1ccccc1)C(NC(=O)[C@@H](O)[C@H](N)Cc1ccccc1)C(=O)O` (stereo partly drawn) [Compound 24, 2-[[(2S,3R)-3-amino-2-hydroxy-4-phenyl-butanoyl]amino]-3-phenyl-pentanoic acid], which IC50 is on record?
A: ≥ 1000 nM

Q: With `COc1ccccc1[C@H](NC(=O)[C@@H](O)[C@H](N)Cc1ccccc1)C(=O)O` [Compound 8, (2S)-2-[[(2S,3R)-3-amino-2-hydroxy-4-phenyl-butanoyl]amino]-2-(2-methoxyphenyl)acetic acid] as the molecule, how does the IC50 read?
A: ≥ 1000 nM

Q: Which IC50 does the source give for `N[C@H](Cc1ccccc1)[C@H](O)C(=O)NC(C(=O)O)c1ccccc1C(F)(F)F` (stereo partly drawn) [Compound 27] here?
A: ≥ 1000 nM

Q: With `N[C@H](Cc1ccccc1)[C@H](O)C(=O)N[C@H](C(=O)NO)c1cccc(OC(F)(F)F)c1` [Compound 53] as the molecule, how does the IC50 read?
A: 100 to 1000 nM

Q: For `N[C@H](Cc1ccccc1)[C@H](O)C(=O)NC(c1cccc(C(F)(F)F)c1)c1nnn[nH]1` (stereo partly drawn) [Compound 43], which IC50 is on record?
A: ≥ 1000 nM

Q: How did the IC50 turn out when `N[C@H](Cc1ccccc1)[C@H](O)C(=O)N[C@H](C(=O)O)C1CCCCC1` [Compound 5, (2S)-2-[[(2S,3R)-3-amino-2-hydroxy-4-phenyl-butanoyl]amino]-2-cyclohexyl-acetic acid] was run?
A: 100 to 1000 nM

Q: With `NC(Cc1cccc(OC(F)(F)F)c1)C(O)C(=O)N[C@H](C(=O)O)c1cccc(OC(F)(F)F)c1` (stereo partly drawn) [Compound 57] as the molecule, how does the IC50 read?
A: ≥ 1000 nM

Q: For `N[C@H](Cc1ccccc1)[C@H](O)C(=O)NC(c1cccc(C(F)(F)F)c1)c1n[nH]c(=O)o1` (stereo partly drawn) [Compound 56], which IC50 is on record?
A: < 100 nM

Q: For `CC(c1ccccc1)[C@H](NC(=O)[C@@H](O)[C@H](N)Cc1ccccc1)C(=O)O` (stereo partly drawn) [Compound 14, 2-[[(2S,3R)-3-amino-2-hydroxy-4-phenyl-butanoyl]amino]-3-phenyl-butanoic acid], which IC50 is on record?
A: ≥ 1000 nM

Q: Which IC50 does the source give for `CC(C)C[C@H](NC(=O)[C@@H](O)[C@H](N)Cc1ccccc1)C(=O)O` [bestatin, reference compound] here?
A: ≥ 1000 nM

Q: Which IC50 does the source give for `N[C@H](Cc1ccccc1)[C@H](O)C(=O)N[C@@H](Cc1ccccc1C(F)(F)F)C(=O)O` [Compound 11, 2-[[(2S,3R)-3-amino-2-hydroxy-4-phenyl-butanoyl]amino]-3-[2-(trifluoromethyl)phenyl]propanoic acid] here?
A: ≥ 1000 nM

Q: Which IC50 does the source give for `N[C@H](Cc1ccccc1)[C@H](O)C(=O)N[C@H](C(=O)O)c1cccnc1` [Compound 9, (2S)-2-[[(2S,3R)-3-amino-2-hydroxy-4-phenyl-butanoyl]amino]-2-(3-pyridyl)acetic acid] here?
A: ≥ 1000 nM

Q: How did the IC50 turn out when `N[C@H](Cc1ccccc1)[C@H](O)C(=O)NC(C(=O)NO)c1cccc(C(F)(F)F)c1` (stereo partly drawn) [Compound 45] was run?
A: 100 to 1000 nM

Q: For `N[C@H](Cc1ccccc1)[C@H](O)C(=O)N[C@H](C(=O)O)c1cccc(OC(F)(F)F)c1` [Compound 31, (S)-2-((2S,3R)-3-amino-2-hydroxy-4-phenylbutanamido)-2-(3-(trifluoromethoxy)phenyl)acetic acid], which IC50 is on record?
A: < 100 nM

Same assay, conditions: 50 nM purified CNDP2 (Sino Biological), 1 mM Met-His substrate, 30 minutes at 37° C.; TABLE 2

Q: `N[C@H](Cc1ccccc1)[C@H](O)C(=O)N[C@H](C(=O)O)c1cccc2c1OC(F)(F)O2` [Compound 115, (S)-2-((2S,3R)-3-amino-2-hydroxy-4-phenylbutanamido)-2-(2,2-difluorobenzo[d][1,3]dioxol-4-yl)acetic acid hydrochloride] was tested. Which IC50 did it give?
A: ≥ 1000 nM and 100 to 1000 nM

Q: For `N[C@H](Cc1ccccc1)[C@H](O)C(=O)N[C@@H](Cc1ccc(OC(F)(F)F)cc1)C(=O)O` [Compound 117, (S)-2-((2S,3R)-3-amino-2-hydroxy-4-phenylbutanamido)-3-(4-(trifluoromethoxy)phenyl)propanoic acid], which IC50 is on record?
A: ≥ 1000 nM

Q: Which IC50 does the source give for `N[C@H](Cc1ccccc1)[C@H](O)C(=O)N[C@H](C(=O)O)c1ccc(F)c(C(F)(F)F)c1` [Compound 95, (S)-2-((2S,3R)-3-amino-2-hydroxy-4-phenylbutanamido)-2-(4-fluoro-3-(trifluoromethyl)phenyl)acetic acid] here?
A: ≥ 1000 nM

Q: How did the IC50 turn out when `N[C@H](Cc1ccccc1)[C@H](O)C(=O)N[C@@H](CC1CCC(F)(F)CC1)c1n[nH]c(=O)o1` [Compound 101] was run?
A: ≥ 1000 nM

Q: `N[C@H](Cc1ccccc1)[C@H](O)C(=O)NC(C(=O)O)c1cc(C(F)(F)F)cc(C(F)(F)F)c1` (stereo partly drawn) [Compound 66] was tested. Which IC50 did it give?
A: ≥ 1000 nM

Q: `C[C@](NC(=O)[C@@H](O)[C@H](N)Cc1ccccc1)(C(=O)O)c1cccc(C(F)(F)F)c1` [Compound 84, (R)-2-((2S,3R)-3-amino-2-hydroxy-4-phenylbutanamido)-2-(3-(trifluoromethyl)phenyl)propanoic acid] was tested. Which IC50 did it give?
A: ≥ 1000 nM

Q: For `N[C@H](Cc1ccc(Cl)cc1)[C@H](O)C(=O)N[C@H](C(=O)O)c1cccc(OC(F)(F)F)c1` [Compound 127, (S)-2-((2S,3R)-3-amino-4-(4-chlorophenyl)-2-hydroxybutanamido)-2-(3-(trifluoromethoxy)phenyl)acetic acid], which IC50 is on record?
A: ≥ 1000 nM

Q: `N[C@H](Cc1ccc(Br)cc1)[C@H](O)C(=O)N[C@@H](C(=O)O)c1cccc(OC(F)(F)F)c1` [Compound 130, (R)-2-((2S,3R)-3-amino-4-(4-bromophenyl)-2-hydroxybutanamido)-2-(3-(trifluoromethoxy)phenyl)acetic acid] was tested. Which IC50 did it give?
A: ≥ 1000 nM

Q: How did the IC50 turn out when `N[C@H](Cc1ccccc1)[C@H](O)C(=O)N[C@H](C(=O)O)c1cccc(C(F)(F)F)c1Cl` [Compound 87, (S)-2-((2S,3R)-3-amino-2-hydroxy-4-phenylbutanamido)-2-(2-chloro-3-(trifluoromethyl)phenyl)acetic acid] was run?
A: 100 to 1000 nM

Q: Which IC50 does the source give for `N[C@H](Cc1ccccc1)[C@H](O)C(=O)N[C@@H](Cc1ccc(OC(F)(F)F)c(F)c1)C(=O)O` [Compound 119, (S)-2-((2S,3R)-3-amino-2-hydroxy-4-phenylbutanamido)-3-(3-fluoro-4-(trifluoromethoxy)phenyl)propanoic acid] here?
A: 100 to 1000 nM

Q: `C[C@@](NC(=O)[C@@H](O)[C@H](N)Cc1ccccc1)(C(=O)O)c1cccc(C(F)(F)F)c1` [Compound 85, (S)-2-((2S,3R)-3-amino-2-hydroxy-4-phenylbutanamido)-2-(3-(trifluoromethyl)phenyl)propanoic acid] was tested. Which IC50 did it give?
A: ≥ 1000 nM

Q: With `N[C@H](Cc1ccc(C(F)(F)F)cc1)[C@H](O)C(=O)N[C@@H](C(=O)O)c1cccc(OC(F)(F)F)c1` [Compound 134] as the molecule, how does the IC50 read?
A: ≥ 1000 nM

Q: With `N[C@H](Cc1ccccc1)[C@H](O)C(=O)N[C@@H](CN1CCC(F)(F)C1)C(=O)O` [Compound 83] as the molecule, how does the IC50 read?
A: ≥ 1000 nM

Q: How did the IC50 turn out when `N[C@H](Cc1ccccc1)[C@H](O)C(=O)N[C@H](C(=O)O)c1ccc(F)c(OC(F)(F)F)c1F` [Compound 114, (S)-2-((2S,3R)-3-amino-2-hydroxy-4-phenylbutanamido)-2-(2,4-difluoro-3-(trifluoromethoxy)phenyl)acetic acid hydrochloride] was run?
A: < 100 nM

Q: `N[C@H](Cc1ccccc1)[C@H](O)C(=O)N[C@@H](C(=O)O)c1cc(C(F)(F)F)ccc1C(F)(F)F` [Compound 80] was tested. Which IC50 did it give?
A: ≥ 1000 nM

Q: For `N[C@H](Cc1ccccc1)[C@H](O)C(=O)N[C@@H](c1cccc(OC(F)(F)F)c1)c1n[nH]c(=O)o1` [Compound 75], which IC50 is on record?
A: ≥ 1000 nM

Q: With `N[C@H](Cc1ccccc1)[C@H](O)C(=O)NC(C(=O)O)c1cc(C(F)(F)F)ccc1F` (stereo partly drawn) [Compound 67] as the molecule, how does the IC50 read?
A: ≥ 1000 nM

Q: Which IC50 does the source give for `N[C@H](Cc1ccccc1)[C@H](O)C(=O)NC(C(=O)O)c1ccc(F)c(C(F)(F)F)c1` (stereo partly drawn) [Compound 69] here?
A: < 100 nM

Q: How did the IC50 turn out when `C[C@](NC(=O)[C@@H](O)[C@H](N)Cc1ccccc1)(C(=O)O)c1cccc(OC(F)(F)F)c1` [Compound 89, (R)-2-((2S,3R)-3-amino-2-hydroxy-4-phenylbutanamido)-2-(3-(trifluoromethoxy)phenyl)propanoic acid] was run?
A: ≥ 1000 nM

Q: How did the IC50 turn out when `N[C@H](Cc1ccccc1)[C@H](O)C(=O)N[C@H](C(=O)O)c1cc(Cl)cc(OC(F)(F)F)c1` [Compound 109, (S)-2-((2S,3R)-3-amino-2-hydroxy-4-phenylbutanamido)-2-(3-chloro-5-(trifluoromethoxy)phenyl)acetic acid hydrochloride] was run?
A: < 100 nM

Q: How did the IC50 turn out when `N[C@H](Cc1ccccc1)[C@H](O)C(=O)N[C@@H](C(=O)O)c1cc(F)cc(C(F)(F)F)c1` [Compound 92, (R)-2-((2S,3R)-3-amino-2-hydroxy-4-phenylbutanamido)-2-(5-fluoro-3-(trifluoromethyl)phenyl)acetic acid] was run?
A: < 100 nM

Q: With `N[C@H](Cc1ccccc1)[C@H](O)C(=O)N[C@@H](C(=O)O)c1cccc(C(F)(F)F)c1F` [Compound 90, (R)-2-((2S,3R)-3-amino-2-hydroxy-4-phenylbutanamido)-2-(2-fluoro-3-(trifluoromethyl)phenyl)acetic acid] as the molecule, how does the IC50 read?
A: < 100 nM

Q: `N[C@H](Cc1ccccc1)[C@H](O)C(=O)N[C@@H](Cc1ccc(C(F)(F)F)c(Cl)c1)C(=O)O` [Compound 100] was tested. Which IC50 did it give?
A: 100 to 1000 nM

Same assay, conditions: bestatin 10 microM down to 5 pM; consistent across run days

Q: For `CC(C)C[C@H](NC(=O)[C@@H](O)[C@H](N)Cc1ccccc1)C(=O)O` [bestatin, reference compound], which IC50 is on record?
A: ~2000 nM
